US11072612B2, “NLRP3 modulators” (INNATE TUMOR IMMUNITY, INC., priority 2016, dated 2021)

Columns and labels:
Assay type in all cases: cell-based
TLR7 = molecular target: T1, TLR7 (Homo sapiens, UniProt Q9NYK1); experiment: TLR7 EC50 assay; details: Table 2
T1 sequence (Q9NYK1 27-1049): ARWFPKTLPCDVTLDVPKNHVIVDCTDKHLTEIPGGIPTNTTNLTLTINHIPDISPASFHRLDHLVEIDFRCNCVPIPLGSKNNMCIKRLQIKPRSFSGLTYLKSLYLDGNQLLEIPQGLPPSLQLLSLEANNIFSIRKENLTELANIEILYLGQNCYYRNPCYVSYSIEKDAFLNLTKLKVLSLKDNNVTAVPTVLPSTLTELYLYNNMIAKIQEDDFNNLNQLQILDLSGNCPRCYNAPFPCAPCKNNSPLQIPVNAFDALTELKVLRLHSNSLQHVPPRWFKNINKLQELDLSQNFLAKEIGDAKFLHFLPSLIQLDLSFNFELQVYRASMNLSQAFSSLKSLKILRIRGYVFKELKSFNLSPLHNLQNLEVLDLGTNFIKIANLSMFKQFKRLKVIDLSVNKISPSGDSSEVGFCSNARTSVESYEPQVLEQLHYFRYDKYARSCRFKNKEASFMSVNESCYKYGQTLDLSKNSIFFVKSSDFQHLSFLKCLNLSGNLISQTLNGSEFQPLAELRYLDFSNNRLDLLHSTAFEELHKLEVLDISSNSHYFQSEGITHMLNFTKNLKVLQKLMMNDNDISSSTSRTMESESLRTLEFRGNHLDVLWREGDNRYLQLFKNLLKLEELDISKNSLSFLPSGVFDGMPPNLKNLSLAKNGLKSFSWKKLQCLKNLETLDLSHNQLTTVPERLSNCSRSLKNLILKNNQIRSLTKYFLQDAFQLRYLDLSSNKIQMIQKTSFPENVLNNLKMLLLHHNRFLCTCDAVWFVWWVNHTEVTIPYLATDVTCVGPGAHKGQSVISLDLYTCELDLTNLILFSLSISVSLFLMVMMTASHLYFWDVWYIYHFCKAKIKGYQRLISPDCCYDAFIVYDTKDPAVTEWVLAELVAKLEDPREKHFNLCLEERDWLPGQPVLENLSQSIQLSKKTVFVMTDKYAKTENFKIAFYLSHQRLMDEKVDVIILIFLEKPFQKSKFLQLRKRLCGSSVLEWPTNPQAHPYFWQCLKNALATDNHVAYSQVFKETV

TLR8 = molecular target: T2, TLR8 (Homo sapiens, UniProt Q9NR97); experiment: TLR8 EC50 assay; details: Table 2
T2 sequence (Q9NR97 27-1041): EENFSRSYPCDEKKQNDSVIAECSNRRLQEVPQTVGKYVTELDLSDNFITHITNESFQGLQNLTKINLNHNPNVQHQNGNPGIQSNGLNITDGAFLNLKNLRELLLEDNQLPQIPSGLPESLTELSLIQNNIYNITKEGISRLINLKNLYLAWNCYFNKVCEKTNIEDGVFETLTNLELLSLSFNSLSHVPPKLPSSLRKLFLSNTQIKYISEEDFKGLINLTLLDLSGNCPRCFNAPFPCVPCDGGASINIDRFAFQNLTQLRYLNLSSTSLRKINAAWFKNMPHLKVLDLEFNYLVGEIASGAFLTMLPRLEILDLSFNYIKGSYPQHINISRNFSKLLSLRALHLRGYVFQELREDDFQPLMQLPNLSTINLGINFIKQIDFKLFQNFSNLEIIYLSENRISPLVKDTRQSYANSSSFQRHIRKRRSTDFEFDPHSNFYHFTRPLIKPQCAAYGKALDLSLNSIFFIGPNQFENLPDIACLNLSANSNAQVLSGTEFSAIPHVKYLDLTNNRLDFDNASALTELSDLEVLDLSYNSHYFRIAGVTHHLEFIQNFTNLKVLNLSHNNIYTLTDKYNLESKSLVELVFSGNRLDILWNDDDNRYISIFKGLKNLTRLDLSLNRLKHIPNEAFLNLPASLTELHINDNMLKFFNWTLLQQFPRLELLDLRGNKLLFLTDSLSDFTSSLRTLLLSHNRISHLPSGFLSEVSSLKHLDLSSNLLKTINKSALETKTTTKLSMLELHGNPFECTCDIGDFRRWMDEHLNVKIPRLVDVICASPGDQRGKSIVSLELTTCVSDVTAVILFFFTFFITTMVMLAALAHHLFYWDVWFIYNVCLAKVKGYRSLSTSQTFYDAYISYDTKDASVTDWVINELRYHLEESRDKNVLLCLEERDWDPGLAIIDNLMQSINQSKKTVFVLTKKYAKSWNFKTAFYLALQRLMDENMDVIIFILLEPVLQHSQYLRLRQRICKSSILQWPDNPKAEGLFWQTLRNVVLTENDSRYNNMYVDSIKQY

hNLRP3 = molecular target: T3, hNLRP3 (Homo sapiens, UniProt Q96P20); experiment: hNLRP3 agonist assay: IL-1β production in PMA-differentiated THP-1 cells (ELISA); details: Table 2, 4 hours, IL-1β by ELISA
T3 construct: THP-1 cells were purchased from the American Type Culture Collection; host or cells: THP-1 cells, PMA-differentiated
T3 sequence (Q96P20 whole entry): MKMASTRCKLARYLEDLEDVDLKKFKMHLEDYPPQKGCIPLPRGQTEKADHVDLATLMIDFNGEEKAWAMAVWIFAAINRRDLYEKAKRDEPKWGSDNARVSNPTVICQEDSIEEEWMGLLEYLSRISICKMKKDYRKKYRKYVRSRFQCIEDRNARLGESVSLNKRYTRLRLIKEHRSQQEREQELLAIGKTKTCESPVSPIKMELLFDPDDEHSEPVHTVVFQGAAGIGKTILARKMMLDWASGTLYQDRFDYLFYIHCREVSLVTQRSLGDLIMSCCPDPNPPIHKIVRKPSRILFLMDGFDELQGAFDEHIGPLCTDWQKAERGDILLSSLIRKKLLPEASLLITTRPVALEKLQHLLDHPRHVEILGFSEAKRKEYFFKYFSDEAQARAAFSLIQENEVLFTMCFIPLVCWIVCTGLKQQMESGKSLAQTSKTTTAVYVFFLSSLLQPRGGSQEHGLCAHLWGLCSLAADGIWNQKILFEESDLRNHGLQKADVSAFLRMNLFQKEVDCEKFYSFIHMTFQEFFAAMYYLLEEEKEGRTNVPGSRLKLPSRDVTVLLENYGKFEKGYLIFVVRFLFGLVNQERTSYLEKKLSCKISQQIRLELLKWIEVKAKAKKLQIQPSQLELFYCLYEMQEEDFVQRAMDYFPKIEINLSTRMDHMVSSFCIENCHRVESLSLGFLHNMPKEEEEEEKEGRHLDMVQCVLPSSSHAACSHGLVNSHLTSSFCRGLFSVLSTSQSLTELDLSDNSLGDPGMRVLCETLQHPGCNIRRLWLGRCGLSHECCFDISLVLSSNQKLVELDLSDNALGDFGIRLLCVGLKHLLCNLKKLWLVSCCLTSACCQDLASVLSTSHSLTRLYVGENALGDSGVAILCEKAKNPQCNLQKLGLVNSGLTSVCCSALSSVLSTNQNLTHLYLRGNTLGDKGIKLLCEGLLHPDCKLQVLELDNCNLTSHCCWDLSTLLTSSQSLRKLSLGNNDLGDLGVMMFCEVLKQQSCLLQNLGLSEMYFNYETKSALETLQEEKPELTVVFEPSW

SMILES	EC50 (TLR7)	EC50 (TLR8)	EC50 (hNLRP3)
CC(C)(C)OC(=O)N1CCC(c2nc3c(N)nc4cc(Br)ccc4c3[nH]2)CC1 [Compound 225]	> 100 µM	> 100 µM	1 to 20 µM
Cc1cc(-c2ccc3c(c2)nc(N)c2nc(CCCO)[nH]c23)n(C)n1 [Compound 151, 3-[4-amino-7-(2,5-dimethylpyrazol-3-yl)-1H-imidazo[4,5-c]quinolin-2-yl]propan-1-ol]	> 100 µM	> 100 µM	1 to 20 µM
CS(=O)(=O)N1CCC(c2nc3c(N)nc4cc(-n5cccn5)ccc4c3[nH]2)CC1 [Compound 114]	> 100 µM	> 100 µM	1 to 20 µM
CC(C(=O)O)c1ccc2c(c1)nc(N)c1nc(CCCO)[nH]c12 (stereo not drawn) [Compound 117]	> 100 µM	> 100 µM	1 to 20 µM
Nc1nc2cc(-c3ccccc3Cl)ccc2c2[nH]c(CCCO)nc12 [Compound 200, 3-[4-amino-7-(2-chlorophenyl)-1H-imidazo[4,5-c]quinolin-2-yl]propan-1-ol]	> 100 µM	> 100 µM	> 100 µM
Nc1nc2cc(-c3ccccc3)ccc2c2[nH]c(C3CCNCC3)nc12 [Compound 222]	> 100 µM	> 100 µM	1 to 20 µM
Nc1nc2cc(Oc3ccccc3)ccc2c2[nH]c(CCCO)nc12 [Compound 163, 3-(4-amino-7-phenoxy-1H-imidazo[4,5-c]quinolin-2-yl)propan-1-ol]	> 100 µM	> 100 µM	20 to 100 µM
Cc1cc(-c2ccc3c(c2)nc(N)c2nc(CCCOCc4ccccc4)[nH]c23)n(C)n1 [Compound 150, 7-(2,5-dimethylpyrazol-3-yl)-2-(3-phenylmethoxypropyl)-1H-imidazo[4,5-c]quinolin-4-amine]	> 100 µM	> 100 µM	> 100 µM
Nc1nc2cc(NC(=O)c3ccccc3)ccc2c2[nH]c(CCCO)nc12 [Compound 180, N-[4-amino-2-(3-hydroxypropyl)-1H-imidazo[4,5-c]quinolin-7-yl]benzamide]	> 100 µM	> 100 µM	> 100 µM
COC(=O)CCn1c(CCCO)nc2c(N)nc3cc(Br)ccc3c21 [Compound 142]	> 100 µM	> 100 µM	1 to 20 µM
Nc1nc2cc(C3CCCCC3)ccc2c2[nH]c(CCCO)nc12 [Compound 174, 3-(4-amino-7-cyclohexyl-1H-imidazo[4,5-c]quinolin-2-yl)propan-1-ol]	> 100 µM	> 100 µM	20 to 100 µM
CC(C)(C)OC(=O)N1CCC(c2nc3c(N)nc4cc(-c5ccccc5)ccc4c3[nH]2)CC1 [Compound 219]	> 100 µM	> 100 µM	≤ 1 µM
Nc1nc2cc(-c3cccc(F)c3)ccc2c2[nH]c(CCCO)nc12 [Compound 208, 3-[4-amino-7-(3-fluorophenyl)-1H-imidazo[4,5-c]quinolin-2-yl]propan-1-ol]	> 100 µM	> 100 µM	> 100 µM
COc1ccncc1-c1ccc2c(c1)nc(N)c1nc(CCCO)[nH]c12 [Compound 171, 3-[4-amino-7-(4-methoxypyridin-3-yl)-1H-imidazo[4,5-c]quinolin-2-yl]propan-1-ol]	> 100 µM	> 100 µM	> 100 µM
Nc1nc2cc(C3CCOCC3)ccc2c2[nH]c(CCCO)nc12 [Compound 196, 3-[4-amino-7-(oxan-4-yl)-1H-imidazo[4,5-c]quinolin-2-yl]propan-1-ol]	> 100 µM	> 100 µM	> 100 µM
Nc1nc2ccccc2c2[nH]c([C@H]3CC[C@@H](O)CC3)nc12 [Compound 134]	> 100 µM	> 100 µM	20 to 100 µM
Nc1nc2cc(-c3cnoc3)ccc2c2[nH]c(CCCO)nc12 [Compound 195, 3-[4-amino-7-(1,2-oxazol-4-yl)-1H-imidazo[4,5-c]quinolin-2-yl]propan-1-ol]	> 100 µM	> 100 µM	> 100 µM
Nc1nc2ccccc2c2[nH]c([C@H]3C[C@H](O)C3)nc12 [Compound 133]	> 100 µM	> 100 µM	20 to 100 µM
Nc1nc2cc(-c3ccccn3)ccc2c2[nH]c(CCCO)nc12 [Compound 185, 3-(4-amino-7-pyridin-2-yl-1H-imidazo[4,5-c]quinolin-2-yl)propan-1-ol]	> 100 µM	> 100 µM	≤ 1 µM
CCCc1ccc2c(c1)nc(N)c1nc(CCCO)[nH]c12 [Compound 160, 3-(4-amino-7-propyl-1H-imidazo[4,5-c]quinolin-2-yl)propan-1-ol]	20 to 100 µM	> 100 µM	≤ 1 µM
Cc1ccc(-c2ccc3c(c2)nc(N)c2nc(CCCO)[nH]c23)cc1 [Compound 210, 3-[4-amino-7-(4-methylphenyl)-1H-imidazo[4,5-c]quinolin-2-yl]propan-1-ol]	> 100 µM	> 100 µM	> 100 µM
Cc1ccncc1-c1ccc2c(c1)nc(N)c1nc(CCCO)[nH]c12 [Compound 213, 3-[4-amino-7-(4-methylpyridin-3-yl)-1H-imidazo[4,5-c]quinolin-2-yl]propan-1-ol]	1 to 20 µM	> 100 µM	> 100 µM
COc1ccc2c(c1)nc(N)c1nc(CCCO)[nH]c12 [Compound 124]	> 100 µM	> 100 µM	1 to 20 µM
COc1cccc(-c2ccc3c(c2)nc(N)c2nc(CCCOCc4ccccc4)[nH]c23)n1 [Compound 247]	> 100 µM	> 100 µM	1 to 20 µM
Nc1nc2ccccc2c2[nH]c(C3CCNCC3)nc12 [Compound 224]	> 100 µM	> 100 µM	20 to 100 µM
COC(=O)CCCn1c(CCCO)nc2c(N)nc3cc(Br)ccc3c21 [Compound 141]	> 100 µM	> 100 µM	1 to 20 µM
Cc1cc(C)n(-c2ccc3c(c2)nc(N)c2nc(CCCO)[nH]c23)n1 [Compound 194, 3-[4-amino-7-(3,5-dimethylpyrazol-1-yl)-1H-imidazo[4,5-c]quinolin-2-yl]propan-1-ol]	20 to 100 µM	> 100 µM	20 to 100 µM
Nc1nc2cc(-c3cccc(=O)[nH]3)ccc2c2[nH]c(CCCO)nc12 [Compound 239]	> 100 µM	> 100 µM	1 to 20 µM
Cc1ncccc1-c1ccc2c(c1)nc(N)c1nc(CCCO)[nH]c12 [Compound 214, 3-[4-amino-7-(2-methylpyridin-3-yl)-1H-imidazo[4,5-c]quinolin-2-yl]propan-1-ol]	20 to 100 µM	> 100 µM	> 100 µM
Nc1nc2cc(-c3cccnc3)ccc2c2[nH]c(CCCOCc3ccccc3)nc12 [Compound 146, 2-(3-phenylmethoxypropyl)-7-pyridin-3-yl-1H-imidazo[4,5-c]quinolin-4-amine]	> 100 µM	> 100 µM	20 to 100 µM
